Measurements reported in patent publication US20260070945A1, “MACROCYCLIC IMMUNOMODULATORS” (Bristol-Myers Squibb Company, priority 2022, published 2026).
*1 amine or outer side, *2 acyl side, *3 side chain or, on linkers, in order; H or OH if unused. Where a SMILES comes first, the peptide text is derived from it. Bridges are numbered along the chain shown (N, C = ends). [ ]: non-standard residue; d: D form. The star is where a group is joined. ξ: configuration not given here. Phe(3-CF3) = N[C@@H](Cc1cccc(C(F)(F)F)c1)C(=O)O; Ala(morpholin-4-yl) = N[C@@H](CN1CCOCC1)C(=O)O; Phe(4-COOH) = N[C@@H](Cc1ccc(C(=O)O)cc1)C(=O)O; Bip = N[C@@H](Cc1ccc(-c2ccccc2)cc1)C(=O)O; Phe(3-CN) = N#Cc1cccc(C[C@H](N)C(=O)O)c1; NH(CH2)14COOH = O=C(O)CCCCCCCCCCCCCCN*; Phe(3-Me) = Cc1cccc(C[C@H](N)C(=O)O)c1; γGlu = O=C(O)[C@H](CCC(=O)[*:2])N[*:1]; NH(CH2)12COOH = O=C(O)CCCCCCCCCCCCN*; Val(3-OH) = CC(C)(O)[C@H](N)C(=O)O; 4Pal = N[C@@H](Cc1ccncc1)C(=O)O; X1 = O=C(CN1CCN([*:1])CC1)[*:2]; Cha = N[C@@H](CC1CCCCC1)C(=O)O; Cit = NC(=O)NCCC[C@H](N)C(=O)O; Thr(3ξ) = CC(O)[C@H](N)C(=O)O; Carboxymethyl = O=C(O)C*; NMeA = CN[C@@H](C)C(=O)O; Orn = NCCC[C@H](N)C(=O)O; Aun = NCCCCCCCCCCC(=O)O; Dab = NCC[C@H](N)C(=O)O; AEEA = NCCOCCOCC(=O)O

target: T1, PD-1/PD-L1 interaction (PE-labeled human PD-L1-Ig binding to Jurkat cell line over-expressing human PD-1) (Homo sapiens, UniProt Q15116); assay: Jurkat-PD-1 Cell Binding High-Content Screening Assay (CBA); settings: Jurkat-hPD-1 cells, PE-labeled PD-L1-Ig 20 nM final; read-out: Jurkat HPD1 PDL1 IC50
T1 construct: expressed in transfected cells; host or cells: Jurkat
Outline: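 Compound is added first to the PD-1-expressing Jurkat cells and held 2 h at 37 °C in serum-containing DMEM. The fluorescent PD-L1 fusion follows at 20 nM final for 1 h. Fixed, Hoechst-stained cells are then imaged for bound label.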

T1 sequence (Q15116 25-288): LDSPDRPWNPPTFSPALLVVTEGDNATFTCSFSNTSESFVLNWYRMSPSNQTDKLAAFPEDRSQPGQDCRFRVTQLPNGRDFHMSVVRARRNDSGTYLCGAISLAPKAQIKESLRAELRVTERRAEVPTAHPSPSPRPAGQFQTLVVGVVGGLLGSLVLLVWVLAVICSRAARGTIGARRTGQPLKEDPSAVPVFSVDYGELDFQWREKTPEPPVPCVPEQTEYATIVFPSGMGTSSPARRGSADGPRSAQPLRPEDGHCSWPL

IC50 [nM]	Structure (SMILES)
105	Cc1cccc(C[C@@H]2NC(=O)[C@H](CC(=O)O)NC(=O)[C@H](Cc3ccc(C(=O)O)cc3)NC(=O)[C@H]([C@@H](C)O)NC(=O)CSC[C@@H](C(=O)N[C@@H](CCN)C(=O)NCCOCCOCC(=O)NCCCCCCCCCCCCC(=O)O)NC(=O)[C@H](CCC(=O)O)NC(=O)[C@H](C(C)(C)O)NC(=O)[C@H](CC3CCCCC3)NC(=O)[C@H](CCN)NC(=O)[C@@H](CC(C)C)NC(=O)[C@H](C)N(C)C(=O)[C@H](Cc3ccc(C(=O)O)cc3)NC(=O)[C@H](Cc3ccc(-c4ccccc4)cc3)NC(=O)[C@H](Cc3ccc(C(=O)O)cc3)NC2=O)c1 [Example 1432] ({CH2CO}-T[Phe(4-COOH)]D[Phe(3-Me)][Phe(4-COOH)][Bip][Phe(4-COOH)][NMeA][dL][Dab][Cha][Val(3-OH)]EC[Dab][AEEA]-{NH(CH2)12COOH}; thioether N-14)
42.2	CC(C)C[C@H]1NC(=O)[C@H](C)N(C)C(=O)[C@H](CCCNC(N)=O)NC(=O)[C@H](Cc2ccc(-c3ccccc3)cc2)NC(=O)[C@H](Cc2ccc(O)cc2)NC(=O)[C@H](Cc2c[nH]c3ccccc23)NC(=O)[C@H](CC(=O)O)NC(=O)[C@H](Cc2ccc(OCC(=O)O)cc2)NC(=O)[C@H](CCCNC(=N)N)NC(=O)CSC[C@@H](C(=O)N[C@@H](CCN)C(=O)NCCCCCCCCCCC(=O)O)NC(=O)[C@H]([C@@H](C)O)NC(=O)[C@H](C(C)C)NC(=O)[C@H](CC2CCCCC2)NC(=O)[C@H](CCN)NC1=O [Example 1354] ({CH2CO}-RY(Carboxymethyl)DWY[Bip][Cit][NMeA][dL][Dab][Cha]VTC[Dab][Aun]-OH; thioether N-14)
9	CC(C)C[C@@H]1NC(=O)[C@H](Cc2c[nH]c3ccccc23)NC(=O)[C@H](CC(=O)O)NC(=O)[C@H](Cc2ccc(C(=O)O)cc2)NC(=O)[C@H](Cc2ccc(OCC(=O)O)cc2)NC(=O)CSC[C@@H](C(=O)NCC(=O)N[C@@H](CCN)C(=O)NCC(=O)NCCCCCCCCCCC(=O)O)NC(=O)[C@H](CO)NC(=O)[C@H](C(C)C)NC(=O)[C@H](CC2CCCCC2)NC(=O)[C@H](CCN)NC(=O)[C@@H](CC(C)C)NC(=O)[C@H](C)N(C)C(=O)[C@H](C(C)C)NC(=O)[C@H](Cc2ccc(-c3ccccc3)cc2)NC1=O [Example 1029] ({CH2CO}-Y(Carboxymethyl)[Phe(4-COOH)]DWL[Bip]V[NMeA][dL][Dab][Cha]VSCG[Dab]G[Aun]-OH; thioether N-14)
10.1	Cc1cccc(C[C@@H]2NC(=O)[C@H](CC(=O)O)NC(=O)[C@H](Cc3ccc(OCC(=O)O)cc3)NC(=O)[C@H](C(C)O)NC(=O)CSC[C@@H](C(=O)N[C@H](CC(N)=O)C(=O)NCCCCCCCCCCC(=O)O)NC(=O)[C@H](C(C)O)NC(=O)[C@H](C(C)C)NC(=O)[C@H](CC3CCCCC3)NC(=O)[C@H](CCN)NC(=O)[C@@H](CC(C)C)NC(=O)[C@H](C)N(C)C(=O)[C@H](CCCNC(N)=O)NC(=O)[C@H](Cc3ccc(-c4ccccc4)cc3)NC(=O)[C@H](C(C)C)NC2=O)c1 (stereo partly drawn) [Example 2313] ({CH2CO}-[Thr(3ξ)]Y(Carboxymethyl)D[Phe(3-Me)]V[Bip][Cit][NMeA][dL][Dab][Cha]V[Thr(3ξ)]C[dN][Aun]-OH; thioether N-14)
202	CC(C)C[C@@H]1NC(=O)[C@H](Cc2c[nH]c3ccccc23)NC(=O)[C@H](CC(=O)O)NC(=O)[C@H](Cc2ccncc2)NC(=O)[C@H](Cc2ccc(OCC(=O)O)cc2)NC(=O)CSC[C@@H](C(=O)N2CCN(CC(=O)NCCCCCCCCCCC(=O)O)CC2)NC(=O)[C@H](C(C)O)NC(=O)[C@H](C(C)C)NC(=O)[C@H](CC2CCCCC2)NC(=O)[C@H](CCN)NC(=O)[C@@H](CC(C)C)NC(=O)[C@H](C)N(C)C(=O)[C@H](C(C)C)NC(=O)[C@H](Cc2ccc(-c3ccccc3)cc2)NC1=O (stereo partly drawn) [Example 1219] ({CH2CO}-Y(Carboxymethyl)[4Pal]DWL[Bip]V[NMeA][dL][Dab][Cha]V[Thr(3ξ)]C[X1][Aun]-OH; thioether N-14)
23.3	Cc1cccc(C[C@@H]2NC(=O)[C@H](CC(=O)O)NC(=O)[C@H](Cc3ccc(OCC(=O)O)cc3)NC(=O)[C@H]([C@@H](C)O)NC(=O)CSC[C@@H](C(=O)N[C@@H](CCN)C(=O)N[C@@H](Cc3cn(CC(=O)NCCCNC(=O)c4cc(F)c(F)c(F)c4)nn3)C(=O)NCCCCCCCCCCC(=O)O)NC(=O)[C@H]([C@@H](C)O)NC(=O)[C@H](C(C)C)NC(=O)[C@H](CC3CCCCC3)NC(=O)[C@H](CCN)NC(=O)[C@@H](CC(C)C)NC(=O)[C@H](C)N(C)C(=O)[C@H](Cc3ccc(OCC(=O)O)cc3)NC(=O)[C@H](Cc3ccc(-c4ccccc4)cc3)NC(=O)[C@H](Cc3ccc(C(=O)O)cc3)NC2=O)c1 [Example 1241]
14.1	CC(C)C[C@@H]1NC(=O)[C@H](Cc2c[nH]c3ccccc23)NC(=O)[C@H](CC(=O)O)NC(=O)[C@H](Cc2ccc(C(=O)O)cc2)NC(=O)[C@H](Cc2ccc(OCC(=O)O)cc2)NC(=O)CSC[C@@H](C(=O)N[C@@H](CCCN)C(=O)NCCOCCOCC(=O)NCCCCCCCCCCC(=O)O)NC(=O)[C@H](CCN)NC(=O)[C@H](C(C)C)NC(=O)[C@H](CC2CCCCC2)NC(=O)[C@H](CCN)NC(=O)[C@@H](CC(C)C)NC(=O)[C@H](C)N(C)C(=O)[C@H](C(C)C)NC(=O)[C@H](Cc2ccc(-c3ccccc3)cc2)NC1=O [Example 2150] ({CH2CO}-Y(Carboxymethyl)[Phe(4-COOH)]DWL[Bip]V[NMeA][dL][Dab][Cha]V[Dab]C[Orn][AEEA][Aun]-OH; thioether N-14)
13.2	CC(C)C[C@@H]1NC(=O)[C@H](Cc2c[nH]c3ccccc23)NC(=O)[C@H](CC(=O)O)NC(=O)[C@H](Cc2ccc(C(=O)O)cc2)NC(=O)[C@H](Cc2ccc(OCC(=O)O)cc2)NC(=O)CSC[C@@H](C(=O)N[C@@H](CCCN)C(=O)NCCOCCOCC(=O)NCCCCCCCCCCC(=O)O)NC(=O)[C@H](CCCN)NC(=O)[C@H](C(C)C)NC(=O)[C@H](CC2CCCCC2)NC(=O)[C@H](CCN)NC(=O)[C@@H](CC(C)C)NC(=O)[C@H](C)N(C)C(=O)[C@H](C(C)C)NC(=O)[C@H](Cc2ccc(-c3ccccc3)cc2)NC1=O [Example 2135] ({CH2CO}-Y(Carboxymethyl)[Phe(4-COOH)]DWL[Bip]V[NMeA][dL][Dab][Cha]V[Orn]C[Orn][AEEA][Aun]-OH; thioether N-14)
128	CC(C)C[C@H]1NC(=O)[C@H](C)N(C)C(=O)[C@H](Cc2ccc(OCC(=O)O)cc2)NC(=O)[C@H](Cc2ccc(-c3ccccc3)cc2)NC(=O)[C@H](Cc2ccc(OCC(=O)O)cc2)NC(=O)[C@H](Cc2cccc(C#N)c2)NC(=O)[C@H](CC(=O)O)NC(=O)[C@H](Cc2ccc(OCC(=O)O)cc2)NC(=O)[C@H]([C@@H](C)O)NC(=O)CSC[C@@H](C(=O)N[C@@H](CCN)C(=O)NCCOCCOCC(=O)NCCCCCCCCCCC(=O)O)NC(=O)[C@H](CCC(=O)O)NC(=O)[C@H](C(C)C)NC(=O)[C@H](CC2CCCCC2)NC(=O)[C@H](CCN)NC1=O [Example 1230] ({CH2CO}-TY(Carboxymethyl)D[Phe(3-CN)]Y(Carboxymethyl)[Bip]Y(Carboxymethyl)[NMeA][dL][Dab][Cha]VEC[Dab][AEEA][Aun]-OH; thioether N-14)
21.4	Cc1cccc(C[C@@H]2NC(=O)[C@H](CC(=O)O)NC(=O)[C@H](Cc3ccc(OCC(=O)O)cc3)NC(=O)[C@H](C(C)O)NC(=O)CSC[C@@H](C(=O)N[C@@H](CCN)C(=O)NCCCCCCCCCCC(=O)O)NC(=O)[C@H](C(C)O)NC(=O)[C@H](C(C)C)NC(=O)[C@H](CC3CCCCC3)NC(=O)[C@H](CCN)NC(=O)[C@@H](CC(C)C)NC(=O)[C@H](C)N(C)C(=O)[C@H](Cc3ccc(OCC(=O)O)cc3)NC(=O)[C@H](Cc3ccc(-c4ccccc4)cc3)NC(=O)[C@H](CCCNC(N)=O)NC2=O)c1 (stereo partly drawn) [Example 2354] ({CH2CO}-[Thr(3ξ)]Y(Carboxymethyl)D[Phe(3-Me)][Cit][Bip]Y(Carboxymethyl)[NMeA][dL][Dab][Cha]V[Thr(3ξ)]C[Dab][Aun]-OH; thioether N-14)
21.5	CC(C)C[C@H]1NC(=O)[C@H](C)N(C)C(=O)[C@H](CCC(N)=O)NC(=O)[C@H](Cc2ccc(-c3ccccc3)cc2)NC(=O)[C@H](Cc2ccc(C(=O)O)cc2)NC(=O)[C@H](Cc2cccc(C(F)(F)F)c2)NC(=O)[C@H](CC(=O)O)NC(=O)[C@H](Cc2ccc(OCC(=O)O)cc2)NC(=O)[C@H](CN2CCOCC2)NC(=O)CSC[C@@H](C(=O)N[C@@H](CCN)C(=O)NCCOCCOCC(=O)N[C@@H](CCC(=O)NCCOCCOCC(=O)NCCCCCCCCCCCCC(=O)O)C(=O)O)NC(=O)[C@H](CO)NC(=O)[C@H](C(C)(C)O)NC(=O)[C@H](CC2CCCCC2)NC(=O)[C@H](CCN)NC1=O [Example 1173] ({CH2CO}-[Ala(morpholin-4-yl)]Y(Carboxymethyl)D[Phe(3-CF3)][Phe(4-COOH)][Bip]Q[NMeA][dL][Dab][Cha][Val(3-OH)]SC[Dab][AEEA][γGlu][AEEA]-{NH(CH2)12COOH}; thioether N-14)

same assay, conditions: PE-labeled PD-L1-Ig 20 nM final, Jurkat-hPD-1 cells; read-out: Jurkat HPD1 PDL1 IC50

IC50 [nM]	Structure (SMILES)
615	CC(C)C[C@H]1NC(=O)[C@H](C)N(C)C(=O)[C@H](Cc2ccc(C(=O)O)cc2)NC(=O)[C@H](Cc2ccc(-c3ccccc3)cc2)NC(=O)[C@H](Cc2ccc(C(=O)O)cc2)NC(=O)[C@H](Cc2cccc(C(F)(F)F)c2)NC(=O)[C@H](CC(=O)O)NC(=O)[C@H](Cc2ccc(C(=O)O)cc2)NC(=O)[C@H](C(C)O)NC(=O)CSC[C@@H](C(=O)N[C@@H](CCN)C(=O)NCCOCCOCC(=O)NCCCCCCCCCCCCCCC(=O)O)NC(=O)[C@H](CC(=O)O)NC(=O)[C@H](C(C)C)NC(=O)[C@H](CC2CCCCC2)NC(=O)[C@H](CCN)NC1=O (stereo partly drawn) [Example 2605] ({CH2CO}-[Thr(3ξ)][Phe(4-COOH)]D[Phe(3-CF3)][Phe(4-COOH)][Bip][Phe(4-COOH)][NMeA][dL][Dab][Cha]VDC[Dab][AEEA]-{NH(CH2)14COOH}; thioether N-14)
